# Experimental data published in patent US6589984B1, “Benzofurylpyrone derivatives” (Teijin Limited, priority 1998, dated 2003).
# Tested on: Human hepatic cancer cells HepG2
# Experiment: TG production inhibiting activity (14C-acetic acid incorporation into TG) in HepG2 cells
# Format: cell-based
# Details: Homo sapiens, HepG2; group criterion, alternatives: IC50 at least 10 μM and less than 100 μM, or at least 5% and less than 30% inhibition at 1 μM, or at least 30% and less than 50% inhibition at 10 μM
# Description: Human hepatic cancer cells HepG2 were inoculated into a 24-well plate (Costar No. 3524) at 4×10^4 cells/well, and 1 ml of medium (eRDF medium containing 10% bovine serum (Kyokuto Chemical Co.)) was used for 6 day culturing with 5% CO2 at 37° C. After drawing off the supernatant medium, the cells were freshly rinsed with 1 ml of PBS(−) buffer solution (Takara Shuzo) and drawn off. This procedure was repeated twice and then 1 ml of fresh medium (eRDF medium) was added.
# 6-(benzofuran-2-yl)-3,5-dimethyl-4-hydroxy-2H-pyran-2-one (Example 2) was dissolved in dimethylsulfoxide (DMSO) to prepare a 20 mM sample stock solution. A diluted solution was obtained by diluting the sample solution with DMSO.
# To the cells prepared above there were added the sample stock solution or its diluted solution at 5 μl per well and 10 μl of ^14C-acetic acid solution (a solution of Amersham Code No. CFA13 diluted 4.4-fold with PBS(−) buffer), and culturing was carried out for one day with 5% CO2 at 37° C.
# After the culturing was completed, the culture solution was removed, and 1 ml of extraction solution (a mixture of n-hexane and isopropyl alcohol at 2:1) was added for extraction treatment on the lipid components in the cells. After the treatment, the extract containing the obtained lipid components was air-dried, the residue was redissolved in 20 μl of a mixed solution of n-hexane and ethyl acetate at 9:1, and the solution was spotted on a thin-layer chromatography plate (S319, Tokyo Kasei) and developed by thin-layer chromatography with the mixed solution mentioned above. After air-drying, the lipid components were colored with iodine vapor, the portion corresponding to TG was cut out, and the amount of TG biosynthesized was measured with a liquid scintillation counter.
row,SMILES,IC50
1,"Cc1c(-c2cc3cc(OCc4nccs4)ccc3o2)oc(=O)c(C)c1O [Example 60, 4-hydroxy-3,5-dimethyl-6-(5-(2-thiazolylmethoxy)benzofuran-2-yl)-2H-pyran-2-one]",10 to 100 µM
2,"Cc1c(O)c(Oc2ccccc2)c(-c2cc3ccccc3o2)oc1=O [Example 67, 6-(benzofuran-2-yl)-4-hydroxy-3-methyl-5-phenoxy-2H-pyran-2-one]",10 to 100 µM
3,"CC=CCc1c(-c2cc3ccccc3o2)oc(=O)c(C)c1O [Example 68, 6-(benzofuran-2-yl)-5-(2-butenyl)-4-hydroxy-3-methyl-2H-pyran-2-one]",10 to 100 µM
4,"Cc1c(-c2cc3ccccc3o2)oc(=O)c(C)c1OC(=O)c1ccc(O)nc1 [Example 74, 6-(benzofuran-2-yl)-3,5-dimethyl-4-(6-hydroxynicotinoyloxy)-2H-pyran-2-one]",10 to 100 µM
5,"Cc1c(-c2cc3cc(OCc4ccc(Cl)cc4)ccc3o2)oc(=O)c(C)c1O [Example 79, 6-(5-(4-chlorobenzyloxy)benzofuran-2-yl)-3,5-dimethyl-4-hydroxy-2H-pyran-2-one]",10 to 100 µM
6,"Cc1c(-c2cc3cc(OCc4ccccc4Br)ccc3o2)oc(=O)c(C)c1O [Example 81, 6-(5-(2-bromobenzyloxy)benzofuran-2-yl)-3,5-dimethyl-4-hydroxy-2H-pyran-2-one]",10 to 100 µM
7,"Cc1c(-c2cc3cc(OCc4cccc(Br)c4)ccc3o2)oc(=O)c(C)c1O [Example 83, 6-(5-(3-bromobenzyloxy)benzofuran-2-yl)-3,5-dimethyl-4-hydroxy-2H-pyran-2-one]",10 to 100 µM
8,"Cc1c(-c2cc3cc(OCc4ccccn4)ccc3o2)oc(=O)c(C)c1O [Example 87, 3,5-dimethyl-4-hydroxy-6-(5-(2-pyridylmethoxy)benzofuran-2-yl)-2H-pyran-2-one]",10 to 100 µM
9,"Cc1c(-c2cc3cc(OCC4CCCCN4C)ccc3o2)oc(=O)c(C)c1O (stereo not shown) [Example 95, 3,5-dimethyl-4-hydroxy-6-(5-(1-methylpiperidin-2-ylmethoxy)benzofuran-2-yl)-2H-pyran-2-one]",10 to 100 µM
10,"Cc1c(-c2cc3cc(OC(CN(C)C)CN(C)C)ccc3o2)oc(=O)c(C)c1O [Example 107, 6-(5-(1,3-bis(dimethylamino)-2-propoxy)benzofuran-2-yl)-3,5-dimethyl-4-hydroxy-2H-pyran-2-one]",10 to 100 µM
11,"Cc1c(-c2cc3cc(OCCN4CCOCC4)ccc3o2)oc(=O)c(C)c1O [Example 115, 3,5-dimethyl-4-hydroxy-6-(5-(2-(morpholin-4-yl)ethoxy)benzofuran-2-yl)-2H-pyran-2-one]",10 to 100 µM
12,"Cc1c(-c2cc3cc(OCc4ccc(C(F)(F)F)cc4)ccc3o2)oc(=O)c(C)c1O [Example 124, 3,5-dimethyl-4-hydroxy-6-(5-(4-(trifluoromethyl)benzyloxy)benzofuran-2-yl)-2H-pyran-2-one]",10 to 100 µM
13,"Cc1c(-c2cc3cc(OCC4CCCC4)ccc3o2)oc(=O)c(C)c1O [Example 126, 6-(5-(cyclopentylmethoxy)benzofuran-2-yl)-3,5-dimethyl-4-hydroxy-2H-pyran-2-one]",10 to 100 µM

# Same assay, conditions: Homo sapiens, HepG2; group criterion, alternatives: IC50 less than 10 μM, or at least 30% inhibition at 1 μM, or at least 50% inhibition at 10 μM
row,SMILES,IC50
1,"Cc1c(-c2cc3ccccc3o2)oc(=O)c(C)c1OC(=O)c1ccncc1 [Example 50, 6-(benzofuran-2-yl)-3,5-dimethyl-4-isonicotinoyloxy-2H-pyran-2-one]",< 10 µM
2,"Cc1c(-c2cc3cc(OCc4ccccc4)ccc3o2)oc(=O)c(C)c1OC(=O)CNC(=O)OC(C)(C)C [Example 52, 6-(5-benzyloxybenzofuran-2-yl)-4-(2-(t-butoxycarbonylamino)acetyloxy)-3,5-dimethyl-2H-pyran-2-one]",< 10 µM
3,"CC(=O)Nc1ccc(C(=O)Oc2c(C)c(-c3cc4cc(OCc5ccccc5)ccc4o3)oc(=O)c2C)cc1 [Example 54, 4-(4-(acetylamino)benzoyloxy)-6-(5-benzyloxybenzofuran-2-yl)-3,5-dimethyl-2H-pyran-2-one]",< 10 µM
4,"Cc1c(-c2cc3cc(OCc4ccccc4)ccc3o2)oc(=O)c(C)c1OC(=O)c1cccnc1 [Example 55, 6-(5-benzyloxybenzofuran-2-yl)-3,5-dimethyl-4-nicotinoyloxy-2H-pyran-2-one]",< 10 µM
5,"Cc1c(-c2cc3cc(OCc4ccccc4)ccc3o2)oc(=O)c(C)c1OC(=O)c1ccncc1 [Example 56, 6-(5-benzyloxybenzofuran-2-yl)-3,5-dimethyl-4-isonicotinoyloxy-2H-pyran-2-one]",< 10 µM
6,"CCc1c(-c2cc3cc(OCc4ccccc4)ccc3o2)oc(=O)c(C)c1O [Example 57, 6-(5-benzyloxybenzofuran-2-yl)-5-ethyl-4-hydroxy-3-methyl-2H-pyran-2-one]",< 10 µM
7,"CC(=O)Oc1c(C)c(-c2cc3cc(OCc4nccs4)ccc3o2)oc(=O)c1C [Example 59, 4-acetyloxy-3,5-dimethyl-6-(5-(2-thiazolylmethoxy)benzofuran-2-yl)-2H-pyran-2-one]",< 10 µM
8,"Cc1c(-c2cc3ccccc3o2)oc(=O)c(C)c1OC(=O)CCc1ccccc1 [Example 61, 6-(benzofuran-2-yl)-3,5-dimethyl-4-(3-phenylpropionyloxy)-2H-pyran-2-one]",< 10 µM
9,"Cc1c(-c2cc3ccccc3o2)oc(=O)c(C)c1OC(=O)c1ccco1 [Example 62, 6-(benzofuran-2-yl)-3,5-dimethyl-4-(2-furoyloxy)-2H-pyran-2-one]",< 10 µM
10,"Cc1c(-c2cc3ccccc3o2)oc(=O)c(C)c1OC(=O)c1cccnc1 [Example 63, 6-(benzofuran-2-yl)-3,5-dimethyl-4-nicotinoyloxy-2H-pyran-2-one]",< 10 µM
11,"CC(=O)NC(CC(=O)N1CCOCC1)C(=O)Oc1c(C)c(-c2cc3ccccc3o2)oc(=O)c1C (stereo not shown) [Example 64, 6-(benzofuran-2-yl)-3,5-dimethyl-4-(2-acetylamino-4-(morpholin-4-yl)-4-oxobutyryloxy)-2H-pyran-2-one]",< 10 µM
12,"CC(=O)Oc1c(C)c(-c2cc3cc(Br)ccc3o2)oc(=O)c1C [Example 65, 4-acetyloxy-6-(5-bromobenzofuran-2-yl)-3,5-dimethyl-2H-pyran-2-one]",< 10 µM
13,"Cc1c(O)c(CC2CCCC2)c(-c2cc3ccccc3o2)oc1=O [Example 66, 6-(benzofuran-2-yl)-5-cyclopentylmethyl-4-hydroxy-3-methyl-2H-pyran-2-one]",< 10 µM
14,"Cc1c(-c2cc3ccccc3o2)oc(=O)c(C)c1C(=O)OC1CCC(=O)N1 (stereo not shown) [Example 70, 6-(benzofuran-2-yl)-3,5-dimethyl-4-(2-pyrrolidon-5-ylcarboxy)-2H-pyran-2-one]",< 10 µM
15,"Cc1c(-c2cc3ccccc3o2)oc(=O)c(C)c1OC(=O)CNC(=O)OC(C)(C)C [Example 71, 6-(benzofuran-2-yl)-4-(2-(t-butoxycarbonylamino)acetyloxy)-3,5-dimethyl-2H-pyran-2-one]",< 10 µM
16,"COc1ccc(C(=O)Oc2c(C)c(-c3cc4ccccc4o3)oc(=O)c2C)c(OC)c1 [Example 72, 6-(benzofuran-2-yl)-4-(2,4-dimethoxybenzoyloxy)-3,5-dimethyl-2H-pyran-2-one]",< 10 µM
17,"Cc1c(-c2cc3ccccc3o2)oc(=O)c(C)c1OC(=O)c1cccc(N(C)C)c1 [Example 75, 6-(benzofuran-2-yl)-3,5-dimethyl-4-(3-dimethylaminobenzoyloxy)-2H-pyran-2-one]",< 10 µM
18,"CC(=O)Nc1ccc(C(=O)Oc2c(C)c(-c3cc4ccccc4o3)oc(=O)c2C)cc1 [Example 76, 4-(4-(acetylamino)benzoyloxy)-6-(benzofuran-2-yl)-3,5-dimethyl-2H-pyran-2-one]",< 10 µM
19,"Cc1c(-c2cc3cc(OCc4ccccc4F)ccc3o2)oc(=O)c(C)c1O [Example 78, 3,5-dimethyl-6-(5-(2-fluorobenzyloxy)benzofuran-2-yl)-4-hydroxy-2H-pyran-2-one]",< 10 µM
20,"Cc1c(-c2cc3cc(OCc4cccnc4)ccc3o2)oc(=O)c(C)c1O [Example 89, 3,5-dimethyl-4-hydroxy-6-(5-(3-pyridylmethoxy)benzofuran-2-yl)-2H-pyran-2-one]",< 10 µM
21,"Cc1c(-c2cc3cc(OCC4CCCN(C)C4)ccc3o2)oc(=O)c(C)c1O (stereo not shown) [Example 97, 3,5-dimethyl-4-hydroxy-6-(5-(1-methylpiperidin-3-ylmethoxy)benzofuran-2-yl)-2H-pyran-2-one]",< 10 µM
22,"Cc1c(-c2cc3cc(OCc4ccc(C(=O)O)cc4)ccc3o2)oc(=O)c(C)c1O [Example 117, 6-(5-(4-carboxybenzyloxy)benzofuran-2-yl)-3,5-dimethyl-4-hydroxy-2H-pyran-2-one]",< 10 µM
23,"Cc1c(-c2cc3cc(OCc4ccccc4C(F)(F)F)ccc3o2)oc(=O)c(C)c1O [Example 120, 3,5-dimethyl-4-hydroxy-6-(5-(2-(trifluoromethyl)benzyloxy)benzofuran-2-yl)-2H-pyran-2-one]",< 10 µM
24,"Cc1c(-c2cc3cc(OCc4cccc(C(F)(F)F)c4)ccc3o2)oc(=O)c(C)c1O [Example 122, 3,5-dimethyl-4-hydroxy-6-(5-(3-(trifluoromethyl)benzyloxy)benzofuran-2-yl)-2H-pyran-2-one]",< 10 µM
